Measured values as given in patent US6607723B1, “Methods and compositions for attenuating antibody-mediated xenograft rejection in human recipients” (priority 1991, dated 2003).

Columns and labels:
[1] = tested on: pig kidney cell line (LLC-PK1); experiment: Chromium release assay, plasma incubated with soluble carbohydrate haptens; assay type: cell-based; conditions: heat inactivated human plasma (O and A), 1 ml incubated overnight at 4° C. with 0.215 g hapten; FIGS. 8A and 8B
Method: Undiluted heat-inactivated plasma (100 μl) was incubated with 100 μl of chromium-labelled target cells (2×10^4 cells) in 96 well V bottom microtiter plates (Dynatech Lab., Chantilly, Va., U.S.A.: Cat.# 1-220-25X) at 37° C. for 1 hour with shaking (20 rpm). A 1/15 dilution of rabbit complement (LOWTOX-M from Cedarlane Laboratories Ltd., Hornby, Ontario, Canada: Cat.# CL3051) was added to each well. The plate was again incubated for 1 hour at 37° C. with shaking. Plates were then spun at 1000 rpm and supernatants were counted for chromium content in the Beckman gamma 4000 counter (Beckman Instruments, Inc., Fullerton, Calif., U.S.A.). Spontaneous and total release controls were also run. Spontaneous counts were always less than 5% of the total counts, and typical total counts of cells ranged from 10,000 to 20,000 cpm.
This procedure was done to investigate the potential for inhibiting human preformed cytotoxic antibodies with carbohydrate(s) haptens. […] The chromium release assay was then performed with treated and untreated plasma; the pig kidney cell line (LLC-PK1) was used as the target cell.

[2] = tested on: Human Anti-Pig Kidney antibodies; experiment: ELISA: human antibodies eluted from pig kidney binding to carbohydrate-BSA antigens; conditions: BSA well O.D. subtracted
Method: (§1) Organs from two populations of pigs were used to purify human anti-pig antibodies. The pig strains were Poland China and Yorkshire. Antibody preparations were obtained by perfusing 100-200 ml of human plasma (O or AB) through pig hearts, pig kidneys or through a column containing solid support coated with pig red cell stroma. After washing the tissues thoroughly with 0.15 M NaCl, the retained antibodies were eluted from the tissue or column using 200 ml of 3M NaSCN. The antibodies were concentrated, and then the protein content determined. Carbohydrate antigens were made by covalent binding of the synthetic oligosaccharides with an aliphatic linking arm (CH2)8COOCH3 to BSA as described by Pinto and Bundle (1983)^19 and/or Lemieux, Bundle, Baker (U.S. Pat. No. 4,137,401)^13 (ten to twenty haptens per molecule of BSA). Example 5, infra, describes this procedure as applied to carbohydrate 2 of FIG. 1A. Structures and trivial names of some of the monosaccharides and oligosaccharides used are included in FIGS. 1A to 1H. The use of synthetic carbohydrate structures to detect antibody binding has been previously described in U.S. Pat. No. 4,137,401^13. The technology used for the ELISA assay for detecting anti-carbohydrate antibodies is a combination of the work from numerous groups. Wells in 96 microtitration plates (Flow Laboratories, Inc., McLean Va., U.S.A.) were coated by incubation at room temperature for 16 hours with 2 μg of BSA-glycoconjugates or BSA per well (20 μg BSA-conjugate/ml diluted in PBS). The coating solutions were removed and 200 μl/well of PBS containing 5% BSA was added. After a 4 hours incubation (22° C.), the wells were washed twice with PBS, then once with H2O. The plates were inverted, allowed to dry, and stored at room temperature. Immediately before testing, 200 μl of PBS containing 1% BSA (1% BSA/PBS) was added to each of the wells and left to stand for 10 to 20 minutes at ambient temperature. The human anti-pig preparations were diluted to between 15 to 70 μg of eluted protein per ml of 1% BSA/PBS. The BSA/PBS was removed and 100 μl of diluted anti-pig preparation was added to the appropriate wells, then incubated at 4° C. for 16 hours. The antibody preparations were removed and the wells were washed 4 times with PBS (200 μl/wash). Alkaline phosphatase-conjugated reagents (anti-human polyvalent (α, γ and μ chain specific), anti-human IgG (γ chain specific) and anti-human IgM (μ chain specific)) from Sigma Chemical Company (St. Louis, Mo., U.S.A.) were each diluted 1/500 in 1% BSA/PBS. One hundred μl of this mixture was added to each well. After 2 hours, wells were washed four times with PBS, then 100 μl/well of 1.0 mg of p-nitrophenyl phosphate/ml of 1 M diethanolamine-HCl (pH 9.8) containing 19% BSA and 500 μM MgCl2 was added. After 1 hour, optical densities at 405 nm (O.D.) were measured using a Microplate Autoreader (Model EL 309, BIO-TEK Instruments, Winooski, Vt., U.S.A.). The O.D. results for BSA-coated wells were subtracted from the results for the glycoconjugate-BSA-coated wells for each preparation. The assays were performed in duplicate.

[3] = tested on: Human Anti-Pig Heart antibodies; experiment: ELISA: human antibodies eluted from pig heart binding to carbohydrate-BSA antigens; conditions: for Optical Density (405 nm): BSA well O.D. subtracted; for O.D. readings: most of the human anti-pig heart preparations
Method: as §1

[4] = tested on: human antibodies eluted from pig heart, pig kidney and/or pig red cell stroma; experiment: ELISA: human anti-pig antibody preparations overall binding to carbohydrate antigens
Method: Organs from two populations of pigs were used to purify human anti-pig antibodies. The pig strains were Poland China and Yorkshire. Antibody preparations were obtained by perfusing 100-200 ml of human plasma (O or AB) through pig hearts, pig kidneys or through a column containing solid support coated with pig red cell stroma. After washing the tissues thoroughly with 0.15 M NaCl, the retained antibodies were eluted from the tissue or column using 200 ml of 3M NaSCN. The antibodies were concentrated, and then the protein content determined. Carbohydrate antigens were made by covalent binding of the synthetic oligosaccharides with an aliphatic linking arm (CH2)8COOCH3 to BSA as described by Pinto and Bundle (1983)^19 and/or Lemieux, Bundle, Baker (U.S. Pat. No. 4,137,401)^13 (ten to twenty haptens per molecule of BSA). Example 5, infra, describes this procedure as applied to carbohydrate 2 of FIG. 1A. Structures and trivial names of some of the monosaccharides and oligosaccharides used are included in FIGS. 1A to 1H. The use of synthetic carbohydrate structures to detect antibody binding has been previously described in U.S. Pat. No. 4,137,401^13. […] After 1 hour, optical densities at 405 nm (O.D.) were measured using a Microplate Autoreader (Model EL 309, BIO-TEK Instruments, Winooski, Vt., U.S.A.). […]

[5] = Human Anti-Pig Kidney preparation 5 A°, human O plasma adsorbed onto tissue
[6] = Human Anti-Pig Kidney preparation 5 B^AB, human AB plasma adsorbed onto tissue
[7] = Human Anti-Pig Kidney preparation 6 A°, human O plasma
[8] = Human Anti-Pig Kidney preparation 6 B^AB, human AB plasma
[9] = Human Anti-Pig Kidney preparation 7 A^AB, human AB plasma
[10] = Human Anti-Pig Kidney preparation 7 B°, human O plasma
[11] = Human Anti-Pig Kidney preparation 8 A°, human O plasma, pig of A-phenotype
[12] = Human Anti-Pig Kidney preparation 9 B^AB, human AB plasma
[13] = Human Anti-Pig Heart preparation 5^AB, human AB plasma
[14] = Human Anti-Pig Heart preparation 6°, human O plasma
[15] = Human Anti-Pig Heart preparation 7^AB, human AB plasma
[16] = Human Anti-Pig Heart preparation 9°, human O plasma

| Optical Density (405 nm) [2, 5] | Optical Density (405 nm) [2, 6] | Optical Density (405 nm) [2, 7] | Optical Density (405 nm) [2, 8] | Optical Density (405 nm) [2, 9] | Optical Density (405 nm) [2, 10] | Optical Density (405 nm) [2, 11] | Optical Density (405 nm) [2, 12] | Optical Density (405 nm) [3, 13] | Optical Density (405 nm) [3, 14] | Optical Density (405 nm) [3, 15] | Optical Density (405 nm) [3, 16] | O.D. readings [3] | Compound | cytotoxic effect of antibodies to the pig cell line [1] | antibodies to the carbohydrate present in eluted antibody preparations ([4]; every preparation of antibodies tested (Table 1)) | reactivity in ELISA ([4]; majority of samples tested, including anti-pig heart and anti-pig kidney) |
| --- | --- | --- | --- | --- | --- | --- | --- | --- | --- | --- | --- | --- | --- | --- | --- | --- |
| – | – | – | – | – | – | – | – | – | – | – | – | – | C[C@@H]1O[C@@H](O[C@H]2C(O)O[C@H](CO)[C@H](O)[C@@H]2O[C@H]2O[C@H](CO)[C@H](O)[C@H](O)[C@H]2O)[C@@H](O)[C@H](O)[C@@H]1O (stereo partly shown) [B trisaccharide] | partially inhibited | – | – |
| 0.4 | 0.3 | 0.2 | 0.4 | 0.9 | 0.1 | 0.0 | 0.1 | 0.5 | 0.2 | >2.0 | 1.7 | some of the highest readings | CC(=O)N[C@@H]1[C@@H](O)[C@H](O[C@@H]2O[C@H](CO)[C@@H](O)[C@H](O)[C@H]2NC(C)=O)[C@@H](CO)O[C@H]1O [formula 26, βGlcNAc(1-4)βGlcNAc] | – | – | – |
| 1.4 | 0.8 | 0.1 | 0.3 | 1.9 | 0.8 | 0.1 | 0.1 | 1.0 | 0.3 | 1.6 | 1.1 | some of the highest readings | CC(=O)N[C@H]1[C@H](O[C@@H]2[C@H](O)[C@@H](O)[C@H](C)O[C@H]2O)O[C@H](CO)[C@@H](O)[C@@H]1O[C@@H]1O[C@@H](C)[C@H](O)[C@@H](O)[C@H]1O [formula 32, α-L-Rha(1-3)βGlcNAc(1-2)α-L-Rha] | – | – | – |
| 1.9 | 1.3 | >2.0 | >2.0 | 0.8 | 1.8 | 1.2 | >2.0 | 1.0 | 0.3 | 1.2 | 0.8 | – | (αGal(1-3)βGal(1-4)βGlc-O—(CH2)8CONH)17-BSA [formula 2] | – | present in every preparation | most reactivity |
| 0.5 | 0.7 | 0.4 | 1.0 | 1.1 | 0.5 | 0.1 | 0.1 | 2.0 | 0.4 | >2.0 | 1.5 | some of the highest readings | N-acetyl-β-D-Glucosaminide [formula 25] | – | – | – |

| Compound | Optical Density (405 nm) [2, 5] | Optical Density (405 nm) [2, 6] | Optical Density (405 nm) [2, 7] | Optical Density (405 nm) [2, 8] | Optical Density (405 nm) [2, 9] | Optical Density (405 nm) [2, 10] | Optical Density (405 nm) [2, 11] | Optical Density (405 nm) [2, 12] | Optical Density (405 nm) [3, 13] | Optical Density (405 nm) [3, 14] | Optical Density (405 nm) [3, 15] | Optical Density (405 nm) [3, 16] | O.D. readings [3] | cytotoxic effect of antibodies to the pig cell line [1] | antibodies to the carbohydrate present in eluted antibody preparations ([4]; every preparation of antibodies tested (Table 1)) | reactivity in ELISA ([4]; majority of samples tested, including anti-pig heart and anti-pig kidney) |
| --- | --- | --- | --- | --- | --- | --- | --- | --- | --- | --- | --- | --- | --- | --- | --- | --- |
| C[C@@H]1O[C@@H](O)[C@H](O)[C@H](O)[C@H]1O [formula 31, α-L-Rhamnose] | 0.2 | 0.0 | 0.3 | 0.5 | 1.7 | 0.1 | 0.0 | 0.1 | 0.7 | 0.4 | >2.0 | 0.6 | some of the highest readings | – | – | – |
